From article PMC8531348, “Design, synthesis, biological evaluation, and molecular modeling studies of pyrazole-benzofuran hybrids as new α-glucosidase inhibitor” (Scientific Reports, 2021)
Several values for one entry are separate records, joined by “and”; a condition that tells them apart may be missing. Equal entries are not always repeated. Where two headings read alike, the source gives them in different places.

What was measured:
[1] = target: T1, α-glucosidase enzyme (from Saccharomyces cerevisiae, EC3.2.1.20) (Saccharomyces cerevisiae, UniProt P53341); assay: biochemical; format: biochemical; conditions: for fold more potent than the standard acarbose: ratio of IC50 versus acarbose
T1 construct: purchased Sigma Chemical Co. (St. Louis, USA)
T1 sequence (P53341 whole entry): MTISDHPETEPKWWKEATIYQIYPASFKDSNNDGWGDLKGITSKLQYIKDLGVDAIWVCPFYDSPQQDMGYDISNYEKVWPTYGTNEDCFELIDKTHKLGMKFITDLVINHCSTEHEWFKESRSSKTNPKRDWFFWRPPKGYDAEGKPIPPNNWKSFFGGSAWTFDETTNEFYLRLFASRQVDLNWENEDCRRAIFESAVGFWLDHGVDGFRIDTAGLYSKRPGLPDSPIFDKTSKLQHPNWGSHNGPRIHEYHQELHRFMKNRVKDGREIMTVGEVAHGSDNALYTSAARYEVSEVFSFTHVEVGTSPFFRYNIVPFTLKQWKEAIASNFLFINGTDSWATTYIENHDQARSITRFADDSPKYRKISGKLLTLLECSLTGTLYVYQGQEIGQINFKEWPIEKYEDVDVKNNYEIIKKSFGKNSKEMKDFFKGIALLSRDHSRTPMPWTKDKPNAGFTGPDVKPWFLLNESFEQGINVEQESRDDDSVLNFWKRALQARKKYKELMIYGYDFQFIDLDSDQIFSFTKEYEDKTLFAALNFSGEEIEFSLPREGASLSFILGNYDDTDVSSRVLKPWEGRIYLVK
Method: The α-glucosidase enzyme (from Saccharomyces cerevisiae, EC3.2.1.20) was used to evaluate the α-glucosidase inhibitory activity. […] Therefore, α-glucosidase from yeast is extensively used for the preliminary screening of α-glucosidase inhibitors[47],[48]. […] Stock solutions of the test compounds and acarbose were prepared in DMSO and eventually diluted with phosphate buffer saline to attain the desired concentration. […] The percentage of enzyme inhibition for each entry was calculated using the following formula:
% Inhibition = [(Abs control—Abs sample)/Abs control] × 100.

3T3 cell line = assay: Cytotoxicity against normal 3T3 cell line by MTT assay; format: cell-based; conditions: at 150 µM concentration, 3T3, MTT
Method: (§1) The results of cytotoxic activity were expressed as the IC50 (µM) and outlined in Table 2.
(§2) The cytotoxicity of the compounds 8e, 8l, 8f and 8n was determined using the 3-(4,5 Dimethylthiazol-2-yl)-2,5-diphenyltetrazolium bromide (MTT) assay according to previously described methods.

[2] = as above; format: cell-based; conditions: mouse, 3T3 cells (normal cell line); MTT assay, normal 3T3 cell line
Method: as §1, §2

α-glucosidase = target: T2, α-glucosidase (Saccharomyces cerevisiae, UniProt P53341); assay: Kinetic study of α-glucosidase inhibition (Lineweaver–Burk plots); format: biochemical
T2 construct: purchased Sigma Chemical Co. (St. Louis, USA)
T2 sequence (P53341 whole entry): as above
Method: In different concentrations of test compound (0, 10, 25, and 40 µM) and with the incremental concentration (2–10 mM) of substrate, the rate of the enzyme activity was calculated. The type of inhibition and experimental inhibition constant (Ki) value were determined by employing Lineweaver–Burk plots and secondary re-plot of these plots, respectively. […] This pattern indicates a competitive type of inhibition.
The kinetics of enzyme inhibition was performed according to the reaction conditions in 2.5 by preparing a series of test solutions in which the concentration of the substrate (PNPG) was varied (2–10 mM) in the absence and presence of compound 8e at different concentrations (0, 10, 25, and 40 µM). A Lineweaver–Burk plot was generated to identify the type of inhibition and the Michaelis–Menten constant (Km) value was determined from the plot between reciprocal of the substrate concentration (1/[S]) and reciprocal of enzyme rate (1/V) over various inhibitor concentrations. The experimental inhibitor constant (Ki) value was constructed by secondary plots of the inhibitor concentration [I] versus Km.

| Structure (SMILES) | melting point | IC50 [1] | also measured |
| --- | --- | --- | --- |
| O=C(NN=Cc1cn(-c2ccccc2)nc1-c1ccccc1)c1cc2ccccc2o1 [8a, N'-((1,3-Diphenyl-1H-pyrazol-4-yl)methylene)benzofuran-2-carbohydrazide] | 210 to 211 °C | 141.2 ± 1.4 µM |  |
| Cc1ccc(-c2nn(-c3ccccc3)cc2C=NNC(=O)c2cc3ccccc3o2)cc1 [8b, N'-((1-Phenyl-3-p-tolyl-1H-pyrazol-4-yl)methylene)benzofuran-2-carbohydrazide] | 234 to 235 °C | 108.3 ± 0.8 µM |  |
| COc1ccc(-c2nn(-c3ccccc3)cc2C=NNC(=O)c2cc3ccccc3o2)cc1 [8c, N'-((3-(4-Methoxyphenyl)-1-phenyl-1H-pyrazol-4-yl)methylene)benzofuran-2-carbohydrazide] | 207 to 209 °C | 100.3 ± 0.7 µM |  |
| O=C(N/N=C/c1cn(-c2ccccc2)nc1-c1ccc(O)cc1)c1cc2ccccc2o1 [8d, (E)-N'-((3-(4-hydroxyphenyl)-1-phenyl-1H-pyrazol-4-yl)methylene)benzofuran-2-carbohydrazide] | 280 to 281 °C | 133.6 ± 1.2 µM |  |
| O=C(NN=Cc1cn(-c2ccccc2)nc1-c1ccc([N+](=O)[O-])cc1)c1cc2ccccc2o1 [8e, N'-((3-(4-Nitrophenyl)-1-phenyl-1H-pyrazol-4-yl)methylene)benzofuran-2-carbohydrazide] |  |  | cytotoxicity against normal cell line (3T3 cell line): noncytotoxic; IC50 [2]: > 150 µM; type of inhibition (α-glucosidase; Lineweaver–Burk plot): competitive; Ki (α-glucosidase; secondary re-plot of Lineweaver–Burk plots, 0, 10, 25, 40 µM inhibitor, substrate 2–10 mM, read-out: inhibition constant Ki): ~38 µM and 38 µM; IC50 ([1]; mean ± SD, at least three experiments, substrate p-nitrophenyl-α-glucopyranoside, read-out: IC50 α-glucosidase inhibitory activity): 40.6 ± 0.2 µM; fold more potent than the standard acarbose [1]: approximately 18 fold |
| O=C(NN=Cc1cn(-c2ccccc2)nc1-c1ccc(Br)cc1)c1cc2ccccc2o1 [8f, N'-((3-(4-Bromophenyl)-1-phenyl-1H-pyrazol-4-yl)methylene)benzofuran-2-carbohydrazide] | 243 to 245 °C | 79.7 ± 0.5 µM | cytotoxicity against normal cell line (3T3 cell line): noncytotoxic; IC50 [2]: > 150 µM; fold more potent than the standard acarbose [1]: nine-fold |
| O=C(NN=Cc1cn(-c2ccccc2)nc1-c1ccc(Cl)cc1)c1cc2ccccc2o1 [8g, N'-((3-(4-Chlorophenyl)-1-phenyl-1H-pyrazol-4-yl)methylene)benzofuran-2-carbohydrazide] | 241 to 243 °C | 125.3 ± 1 µM |  |
| O=C(NN=Cc1cn(-c2ccccc2)nc1-c1ccc(F)cc1)c1cc2ccccc2o1 [8h, N'-((3-(4-Fluorophenyl)-1-phenyl-1H-pyrazol-4-yl)methylene)benzofuran-2-carbohydrazide] | 253 to 254 °C | 164 ± 1.8 µM |  |
| O=C(NN=Cc1cn(-c2ccccc2)nc1-c1ccc(C(F)(F)F)cc1)c1cc2ccccc2o1 [8i, N'-((1-Phenyl-3-(4-(trifluoromethyl)phenyl)-1H-pyrazol-4-yl)methylene)benzofuran-2-carbohydrazide] | 217 to 218 °C | 101.7 ± 0.7 µM |  |
| Cc1ccc(-n2cc(C=NNC(=O)c3cc4ccccc4o3)c(-c3ccccc3)n2)cc1 [8j, N'-((3-Phenyl-1-p-tolyl-1H-pyrazol-4-yl)methylene)benzofuran-2-carbohydrazide] | 255 to 256 °C | 157 ± 1.6 µM |  |
| Cc1ccc(-c2nn(-c3ccc(C)cc3)cc2C=NNC(=O)c2cc3ccccc3o2)cc1 [8k, N'-((1,3-Dip-tolyl-1H-pyrazol-4-yl)methylene)benzofuran-2-carbohydrazide] | 259 to 261 °C | 115.6 ± 0.9 µM |  |
| COc1ccc(-c2nn(-c3ccc(C)cc3)cc2C=NNC(=O)c2cc3ccccc3o2)cc1 [8l, N'-((3-(4-Methoxyphenyl)-1-p-tolyl-1H-pyrazol-4-yl)methylene)benzofuran-2-carbohydrazide] | 230 to 232 °C | 54.7 ± 0.3 µM | cytotoxicity against normal cell line (3T3 cell line): noncytotoxic; IC50 [2]: > 150 µM; increase in activity compared with compound 8c ([1]; effect of methyl group on R2): two-fold; fold more potent than the standard acarbose [1]: > 13 fold |
| Cc1ccc(-n2cc(C=NNC(=O)c3cc4ccccc4o3)c(-c3ccc(O)cc3)n2)cc1 [8m, N'-((3-(4-Hydroxyphenyl)-1-p-tolyl-1H-pyrazol-4-yl)methylene)benzofuran-2-carbohydrazide] | 293 to 295 °C | 127 ± 1 µM |  |
| Cc1ccc(-n2cc(C=NNC(=O)c3cc4ccccc4o3)c(-c3ccc(Br)cc3)n2)cc1 [8n, N'-((3-(4-Bromophenyl)-1-p-tolyl-1H-pyrazol-4-yl)methylene)benzofuran-2-carbohydrazide] | 258 to 259 °C | 95.6 ± 0.6 µM | cytotoxicity against normal cell line (3T3 cell line): noncytotoxic; IC50 [2]: > 150 µM; fold more potent than the standard acarbose [1]: approximately eight-fold |
| Cc1ccc(-n2cc(C=NNC(=O)c3cc4ccccc4o3)c(-c3ccc(Cl)cc3)n2)cc1 [8o, N'-((3-(4-Chlorophenyl)-1-p-tolyl-1H-pyrazol-4-yl)methylene)benzofuran-2-carbohydrazide] | 248 to 249 °C | 155 ± 1.6 µM |  |
